“Also recorded” adds a separate entry of the source. No end group written: not given here.

Data on 13 molecules can be found in PMC8744458 (Beilstein Journal of Organic Chemistry, 2022).

The nature of data set [1]: on-resin intramolecular Suzuki-Miyaura biaryl stapling (i,i+4) between 6- or 7-bromo-Trp and aryl boronic acid/Bpin side chain; Pd2(dba)3 0.2 eq, sSPhos 0.4 eq, KF 4 eq, microwave 120 C 30 min; then TFA/TIS/H2O cleavage. The conditions noted are these: the molecule shown is the open-chain precursor, DME/EtOH/H2O 9:9:2, 16.7 mM, 0.5 h.
Assay in data set [2]: not given
This is another data set of the same source.

Assay in data set [3]: not given
The source holds these as a separate data set.

A further data set has as its system Proteinase K. Put plainly: Proteinase K (2.5 µg mL−1) in Na2HPO4 buffer (100 mM, pH 7.4). The following applies: 25 °C, up to 120 min.
The next data set concerns the target T1, β-catenin (Homo sapiens, UniProt P35222).
T1 chain: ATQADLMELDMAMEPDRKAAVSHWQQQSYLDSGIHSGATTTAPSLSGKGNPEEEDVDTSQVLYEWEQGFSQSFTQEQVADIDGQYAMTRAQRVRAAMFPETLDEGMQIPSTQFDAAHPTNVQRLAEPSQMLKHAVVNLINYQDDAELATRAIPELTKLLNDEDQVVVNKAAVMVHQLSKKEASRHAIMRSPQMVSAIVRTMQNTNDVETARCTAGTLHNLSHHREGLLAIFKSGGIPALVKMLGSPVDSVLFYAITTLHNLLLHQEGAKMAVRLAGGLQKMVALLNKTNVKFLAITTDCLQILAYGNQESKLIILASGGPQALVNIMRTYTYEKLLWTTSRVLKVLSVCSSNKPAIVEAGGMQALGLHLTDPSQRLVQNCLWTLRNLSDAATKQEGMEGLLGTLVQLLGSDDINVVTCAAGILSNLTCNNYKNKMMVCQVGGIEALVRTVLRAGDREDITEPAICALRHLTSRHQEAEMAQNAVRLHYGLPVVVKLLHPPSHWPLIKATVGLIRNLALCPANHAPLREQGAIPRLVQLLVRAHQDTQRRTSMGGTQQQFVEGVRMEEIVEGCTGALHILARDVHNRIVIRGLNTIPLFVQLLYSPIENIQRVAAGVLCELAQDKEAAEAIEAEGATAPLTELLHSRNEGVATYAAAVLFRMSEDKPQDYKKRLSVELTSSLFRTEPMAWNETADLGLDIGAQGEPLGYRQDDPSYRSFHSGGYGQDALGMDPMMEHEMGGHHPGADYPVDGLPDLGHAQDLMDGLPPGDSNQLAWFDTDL
Put plainly: direct fluorescence polarisation. (Fluorescence polarisation rises when a labelled molecule tumbles more slowly, as on binding a larger partner.)

`CC[C@H](C)[C@H](NC(=O)[C@H](Cc1c[nH]c2c(Br)cccc12)NC(=O)[C@H](CCC(=O)OC(C)(C)C)NC(=O)[C@@H]1CCCN1C(=O)[C@H](CC(=O)NC(c1ccccc1)(c1ccccc1)c1ccccc1)NC(=O)[C@H](CCC(=O)OC(C)(C)C)NC(C)=O)C(=O)N[C@@H](CC(C)C)C(=O)N[C@@H](CC(=O)OC(C)(C)C)C(=O)N[C@@H](CCCCNC(=O)CCc1ccc(B(O)O)cc1)C(=O)N[C@@H](Cc1cn(C(c2ccccc2)(c2ccccc2)c2ccccc2)cn1)C(=O)N[C@H](C(=O)N[C@@H](CCC(=O)NC(c1ccccc1)(c1ccccc1)c1ccccc1)C(=O)N[C@@H](CCCNC(=N)NS(=O)(=O)c1c(C)c(C)c2c(c1C)CC(C)(C)O2)C(=O)N[C@H](C(=O)N[C@@H](CCSC)C(N)=O)C(C)C)C(C)C`: the ring closure, overall yield in data set [1] (30-membered ring) worked out at 14%.

Molecule `CC[C@H](C)[C@H](NC(=O)[C@H](Cc1c[nH]c2c(Br)cccc12)NC(=O)[C@H](CCC(=O)OC(C)(C)C)NC(=O)[C@@H]1CCCN1C(=O)[C@H](CC(=O)NC(c1ccccc1)(c1ccccc1)c1ccccc1)NC(=O)[C@H](CCC(=O)OC(C)(C)C)NC(C)=O)C(=O)N[C@@H](CC(C)C)C(=O)N[C@@H](CC(=O)OC(C)(C)C)C(=O)N[C@@H](CCCCNC(=O)c1ccc(B(O)O)cc1)C(=O)N[C@@H](Cc1cn(C(c2ccccc2)(c2ccccc2)c2ccccc2)cn1)C(=O)N[C@H](C(=O)N[C@@H](CCC(=O)NC(c1ccccc1)(c1ccccc1)c1ccccc1)C(=O)N[C@@H](CCCNC(=N)NS(=O)(=O)c1c(C)c(C)c2c(c1C)CC(C)(C)O2)C(=O)N[C@H](C(=O)N[C@@H](CCSC)C(N)=O)C(C)C)C(C)C` came in with a ring closure, overall yield in data set [1] (28-membered ring) of 11%.

`CC[C@H](C)[C@H](NC(=O)[C@H](Cc1c[nH]c2c(Br)cccc12)NC(=O)[C@H](CCC(=O)OC(C)(C)C)NC(=O)[C@@H]1CCCN1C(=O)[C@H](CC(=O)NC(c1ccccc1)(c1ccccc1)c1ccccc1)NC(=O)[C@H](CCC(=O)OC(C)(C)C)NC(C)=O)C(=O)N[C@@H](CC(C)C)C(=O)N[C@@H](CC(=O)OC(C)(C)C)C(=O)N[C@@H](CCCNC(=O)c1ccc(B(O)O)cc1)C(=O)N[C@@H](Cc1cn(C(c2ccccc2)(c2ccccc2)c2ccccc2)cn1)C(=O)N[C@H](C(=O)N[C@@H](CCC(=O)NC(c1ccccc1)(c1ccccc1)c1ccccc1)C(=O)N[C@@H](CCCNC(=N)NS(=O)(=O)c1c(C)c(C)c2c(c1C)CC(C)(C)O2)C(=O)N[C@H](C(=O)N[C@@H](CCSC)C(N)=O)C(C)C)C(C)C` displayed a ring closure, overall yield in data set [1] (27-membered ring) of 8%.

Molecule `CC[C@H](C)[C@H](NC(=O)[C@H](Cc1c[nH]c2c(Br)cccc12)NC(=O)[C@H](CCC(=O)OC(C)(C)C)NC(=O)[C@@H]1CCCN1C(=O)[C@H](CC(=O)NC(c1ccccc1)(c1ccccc1)c1ccccc1)NC(=O)[C@H](CCC(=O)OC(C)(C)C)NC(C)=O)C(=O)N[C@@H](CC(C)C)C(=O)N[C@@H](CC(=O)OC(C)(C)C)C(=O)N[C@@H](CCNC(=O)c1ccc(B(O)O)cc1)C(=O)N[C@@H](Cc1cn(C(c2ccccc2)(c2ccccc2)c2ccccc2)cn1)C(=O)N[C@H](C(=O)N[C@@H](CCC(=O)NC(c1ccccc1)(c1ccccc1)c1ccccc1)C(=O)N[C@@H](CCCNC(=N)NS(=O)(=O)c1c(C)c(C)c2c(c1C)CC(C)(C)O2)C(=O)N[C@H](C(=O)N[C@@H](CCSC)C(N)=O)C(C)C)C(C)C` registered a ring closure, overall yield in data set [1] (26-membered ring) of 9%.

As to `CC[C@H](C)[C@H](NC(=O)[C@H](Cc1c[nH]c2c(Br)cccc12)NC(=O)[C@H](CCC(=O)OC(C)(C)C)NC(=O)[C@@H]1CCCN1C(=O)[C@H](CC(=O)NC(c1ccccc1)(c1ccccc1)c1ccccc1)NC(=O)[C@H](CCC(=O)OC(C)(C)C)NC(C)=O)C(=O)N[C@@H](CC(C)C)C(=O)N[C@@H](CC(=O)OC(C)(C)C)C(=O)N[C@@H](Cc1ccc(B2OC(C)(C)C(C)(C)O2)cc1)C(=O)N[C@@H](Cc1cn(C(c2ccccc2)(c2ccccc2)c2ccccc2)cn1)C(=O)N[C@H](C(=O)N[C@@H](CCC(=O)NC(c1ccccc1)(c1ccccc1)c1ccccc1)C(=O)N[C@@H](CCCNC(=N)NS(=O)(=O)c1c(C)c(C)c2c(c1C)CC(C)(C)O2)C(=O)N[C@H](C(=O)N[C@@H](CCSC)C(N)=O)C(C)C)C(C)C`, the ring closure, overall yield in data set [1] (23-membered ring) worked out at 3%.

For the molecule `CC[C@H](C)[C@H](NC(=O)[C@H](Cc1c[nH]c2cc(Br)ccc12)NC(=O)[C@H](CCC(=O)OC(C)(C)C)NC(=O)[C@@H]1CCCN1C(=O)[C@H](CC(=O)NC(c1ccccc1)(c1ccccc1)c1ccccc1)NC(=O)[C@H](CCC(=O)OC(C)(C)C)NC(C)=O)C(=O)N[C@@H](CC(C)C)C(=O)N[C@@H](CC(=O)OC(C)(C)C)C(=O)N[C@@H](CCCCNC(=O)c1ccc(B(O)O)cc1)C(=O)N[C@@H](Cc1cn(C(c2ccccc2)(c2ccccc2)c2ccccc2)cn1)C(=O)N[C@H](C(=O)N[C@@H](CCC(=O)NC(c1ccccc1)(c1ccccc1)c1ccccc1)C(=O)N[C@@H](CCCNC(=N)NS(=O)(=O)c1c(C)c(C)c2c(c1C)CC(C)(C)O2)C(=O)N[C@H](C(=O)N[C@@H](CCSC)C(N)=O)C(C)C)C(C)C`, the ring closure, overall yield in data set [1] (29-membered ring) came out at 10%.

With `CC[C@H](C)[C@H](NC(=O)[C@H](Cc1c[nH]c2cc(Br)ccc12)NC(=O)[C@H](CCC(=O)OC(C)(C)C)NC(=O)[C@@H]1CCCN1C(=O)[C@H](CC(=O)NC(c1ccccc1)(c1ccccc1)c1ccccc1)NC(=O)[C@H](CCC(=O)OC(C)(C)C)NC(C)=O)C(=O)N[C@@H](CC(C)C)C(=O)N[C@@H](CC(=O)OC(C)(C)C)C(=O)N[C@@H](CCCNC(=O)c1ccc(B(O)O)cc1)C(=O)N[C@@H](Cc1cn(C(c2ccccc2)(c2ccccc2)c2ccccc2)cn1)C(=O)N[C@H](C(=O)N[C@@H](CCC(=O)NC(c1ccccc1)(c1ccccc1)c1ccccc1)C(=O)N[C@@H](CCCNC(=N)NS(=O)(=O)c1c(C)c(C)c2c(c1C)CC(C)(C)O2)C(=O)N[C@H](C(=O)N[C@@H](CCSC)C(N)=O)C(C)C)C(C)C`, in data set [1] (28-membered ring), the ring closure, overall yield was found to be 8%.

Take `CC[C@H](C)[C@H](NC(=O)[C@H](Cc1c[nH]c2cc(Br)ccc12)NC(=O)[C@H](CCC(=O)OC(C)(C)C)NC(=O)[C@@H]1CCCN1C(=O)[C@H](CC(=O)NC(c1ccccc1)(c1ccccc1)c1ccccc1)NC(=O)[C@H](CCC(=O)OC(C)(C)C)NC(C)=O)C(=O)N[C@@H](CC(C)C)C(=O)N[C@@H](CC(=O)OC(C)(C)C)C(=O)N[C@@H](CCNC(=O)c1ccc(B(O)O)cc1)C(=O)N[C@@H](Cc1cn(C(c2ccccc2)(c2ccccc2)c2ccccc2)cn1)C(=O)N[C@H](C(=O)N[C@@H](CCC(=O)NC(c1ccccc1)(c1ccccc1)c1ccccc1)C(=O)N[C@@H](CCCNC(=N)NS(=O)(=O)c1c(C)c(C)c2c(c1C)CC(C)(C)O2)C(=O)N[C@H](C(=O)N[C@@H](CCSC)C(N)=O)C(C)C)C(C)C`: the ring closure, overall yield in data set [1] (27-membered ring) was determined as 8%.

In data set [1] (24-membered ring), `CC[C@H](C)[C@H](NC(=O)[C@H](Cc1c[nH]c2cc(Br)ccc12)NC(=O)[C@H](CCC(=O)OC(C)(C)C)NC(=O)[C@@H]1CCCN1C(=O)[C@H](CC(=O)NC(c1ccccc1)(c1ccccc1)c1ccccc1)NC(=O)[C@H](CCC(=O)OC(C)(C)C)NC(C)=O)C(=O)N[C@@H](CC(C)C)C(=O)N[C@@H](CC(=O)OC(C)(C)C)C(=O)N[C@@H](Cc1ccc(B2OC(C)(C)C(C)(C)O2)cc1)C(=O)N[C@@H](Cc1cn(C(c2ccccc2)(c2ccccc2)c2ccccc2)cn1)C(=O)N[C@H](C(=O)N[C@@H](CCC(=O)NC(c1ccccc1)(c1ccccc1)c1ccccc1)C(=O)N[C@@H](CCCNC(=N)NS(=O)(=O)c1c(C)c(C)c2c(c1C)CC(C)(C)O2)C(=O)N[C@H](C(=O)N[C@@H](CCSC)C(N)=O)C(C)C)C(C)C` registered a ring closure, overall yield of 4%.

Molecule Ac-ENPESILDEHVQRVM-NH2 had a θ222 of -4.29 mdeg. The MRE (deg cm2 dmol-1) in data set [2] is -2860. This molecule came in with a [θ]222 (deg cm2 dmol-1) in data set [3] of -42900.

For Ac-ENPEWILDKHVQRVM-NH2, the cleaved bond entry in the data set with Proteinase K is reported as “Leu-Asp; also recorded: Lys-His; also recorded: Gln-Arg”.

On to “Ac-Glu-Asn-Pro-Glu-Trp-Ile-Leu-Asp-Lys-His-Val-Gln-Arg-Val-Met-NH2 (Trp and Lys drawn as structures, side chains cross-linked by the 7-aryl-Trp staple)”, for which, in the data set on Proteinase K, the cleaved bond entry is listed as “Gln-Arg” and the not cleaved entry is reported as “not hydrolysed after leucine within 120 min; also recorded: not hydrolysed after lysine within 120 min”.

Broadly, the Kd is the concentration at which binding is half-saturated. PESILDEHVQRVLRT (also: FITC label, site not given here) [fAxWt (FITC-labelled axin CBD peptide) 467-481] gave a Kd with β-catenin of 1190 nM.
